Consider four molecules from US9738697B2 (Wisconsin Alumni Research Foundation, priority 2013, dated 2017).

What is called amount remaining is what is left of the initial amount, in per cent.

The test system of data set [1] is neprilysin (NEP 24.11). The note with it: cited from earlier work.
The test system of data set [2] is dipeptidyl peptidase-4 (DPP-4). The note with it: cited from earlier work.
The target in data set [3] is T1, neprilysin (Homo sapiens, UniProt P08473).
T1 construct: purchased Reprokine; Ltd. RKP08473
The data set is described as follows: Protease assay with neprilysin (HPLC). It counts as in vitro ADME. The note with it: 40 μg/mL neprilysin.
Procedure: An HPLC method from the literature was used to assess protease action on selected compounds.^29,31 Two nmol of solid peptide was dissolved in 40 μL of TBS pH 8.0 (resulting concentration of peptide=40 μM) before protease was added. Chymotrypsin was purchased from Promega (Fitchburg, Wis.; catalog #V1062), and neprilysin was purchased from Reprokine. Ltd. (Valley Cottage, N.Y.; catalog #RKP08473); stock solutions of 250 μg/mL chymotrypsin and 200 μg/mL neprilysin in water were prepared. A 10 μL aliquot of protease stock solution was added to 40 μL of 40 μM peptide solution to begin the reaction. Periodically, a 10 μL aliquot of the solution was removed, and protease action was halted by adding this aliquot to 100 μL of 1% aqueous TFA solution. […] The time course of peptide degradation was experimentally determined by integrating the area of each peak in a series of HPLC traces. The area percent of parent peptide (relative to the initial trace) was calculated for each trace and plotted in GraphPad Prism as an exponential decay to determine half-life values.
Major backbone cut sites, as determined by MALDI-TOF-MS, are indicated with double front slashes.

The target of data set [4] is T2, DPP-4 (Homo sapiens, UniProt P27487).
T2 construct: purchased EMD Biosciences 317640
The data set is described as follows: Protease assay with DPP-4 (HPLC). It counts as in vitro ADME. The note with it: TBS pH 8.0, 37° C.

The subject of data set [5] is T3, chymotrypsin.
T3 construct: purchased Promega V1062
The data set is described as follows: Protease assay with chymotrypsin (HPLC). The note with it: chymotrypsin (50 μg/mL) in TBS, 50 μg/mL chymotrypsin, TBS pH 8.0, room temperature. Type of data set: in vitro ADME. As to the method: (§1) An HPLC method from the literature was used to assess protease action on selected compounds.^29,31 Two nmol of solid peptide was dissolved in 40 μL of TBS pH 8.0 (resulting concentration of peptide=40 μM) before protease was added. Chymotrypsin was purchased from Promega (Fitchburg, Wis.; catalog #V1062), and neprilysin was purchased from Reprokine. Ltd. (Valley Cottage, N.Y.; catalog #RKP08473); stock solutions of 250 μg/mL chymotrypsin and 200 μg/mL neprilysin in water were prepared. A 10 μL aliquot of protease stock solution was added to 40 μL of 40 μM peptide solution to begin the reaction. Periodically, a 10 μL aliquot of the solution was removed, and protease action was halted by adding this aliquot to 100 μL of 1% aqueous TFA solution. A portion (100 μL) of the quenched solution was injected onto an HPLC column using the conditions described under “Peptide Synthesis”, and peaks were analyzed using MALDI-TOF MS. The time course of peptide degradation was experimentally determined by integrating the area of each peak in a series of HPLC traces. The area percent of parent peptide (relative to the initial trace) was calculated for each trace and plotted in GraphPad Prism as an exponential decay to determine half-life values.
(§2) ID. […] Major backbone cut sites are indicated with double front slashes. […] Digestion occurs at three major cleavage sites. […] ID. NO: 7 with 50 μg/mL chymotrypsin in TBS pH 8.0 at room temperature. […] ID. NO: 9 with 50 μg/mL chymotrypsin in TBS pH 8.0 at room temperature. This peptide has seven substitutions, α→Aib.

Data set [6] deals with T4, chymotrypsin (Bos taurus, UniProt P00766).
T4 construct: purchased Promega V1062
The data set is described as follows: Protease assay with chymotrypsin (HPLC). It counts as in vitro ADME. The note with it: 50 μg/mL chymotrypsin. As to the method: as §1, §2

Data set [7] deals with C57BL/6J mice. In words: Glucose tolerance test (GTT) in mice. Type of data set: in vivo, mouse. As to the method:
ID. NO: 7 was administered to mice by interperitoneal (i.p.) injection at a 1 mg/kg dose, or lower for SEQ. ID. NO: 7, using an injection volume of 10 mL/kg body mass. Each peptide was first dissolved in prefiltered DMSO at 10 mg/mL concentration, then diluted >20-fold with TBS buffer, pH 7.4 (final DMSO conc.=<5%). Glucose was administered by i.p. injection with a sterile-filtered 30% D-glucose-saline solution at a 1.5 g/kg dose using a 5 mL/kg injection volume.
Thirteen-week-old male C57BL/6J mice (The Jackson Laboratory) (n=4) were fasted overnight on wood chip bedding for 15 hours prior to the experiment. Blood glucose levels were monitored from a tail tip bleed using an ACCU-CHEK®-brand blood glucose meter (Roche Diagnostics, Indianapolis, Ind.). Fasting glucose levels were measured at 75 minutes prior to the glucose injection (t=−75 min), and the compound injection was performed 60 minutes prior to the glucose injection (t=−60 min). Glucose levels were measured immediately prior to the glucose injection (t=0 min) to assess any changes in the baseline glucose caused by peptide administration. Blood glucose levels were monitored at 30, 60, 90, and 120 minutes after injection of glucose.
Five hours after peptide injection, the mice received a second injection of 1.5 g/kg glucose. Blood glucose was monitored at 30 min after this second glucose injection. Mice were sacrificed by CO2 inhalation at the conclusion of the GTT.

The target in data set [8] is human GLP-1 receptor (Homo sapiens, UniProt P43220). In words: GLP-1R activation monitored by cAMP production in HEK293 cells. (In general: Cyclic AMP is a second messenger, typically raised through Gs and lowered through Gi signalling.)
Data set [9] concerns DPP-4. In words: DPP-4 (EMD Biosciences; catalog #317640) in TBS buffer, pH 8.0. The note with it: 37° C., up to seven (7) days.

“Also recorded” adds a separate entry of the source.

T2 sequence (P27487 whole entry): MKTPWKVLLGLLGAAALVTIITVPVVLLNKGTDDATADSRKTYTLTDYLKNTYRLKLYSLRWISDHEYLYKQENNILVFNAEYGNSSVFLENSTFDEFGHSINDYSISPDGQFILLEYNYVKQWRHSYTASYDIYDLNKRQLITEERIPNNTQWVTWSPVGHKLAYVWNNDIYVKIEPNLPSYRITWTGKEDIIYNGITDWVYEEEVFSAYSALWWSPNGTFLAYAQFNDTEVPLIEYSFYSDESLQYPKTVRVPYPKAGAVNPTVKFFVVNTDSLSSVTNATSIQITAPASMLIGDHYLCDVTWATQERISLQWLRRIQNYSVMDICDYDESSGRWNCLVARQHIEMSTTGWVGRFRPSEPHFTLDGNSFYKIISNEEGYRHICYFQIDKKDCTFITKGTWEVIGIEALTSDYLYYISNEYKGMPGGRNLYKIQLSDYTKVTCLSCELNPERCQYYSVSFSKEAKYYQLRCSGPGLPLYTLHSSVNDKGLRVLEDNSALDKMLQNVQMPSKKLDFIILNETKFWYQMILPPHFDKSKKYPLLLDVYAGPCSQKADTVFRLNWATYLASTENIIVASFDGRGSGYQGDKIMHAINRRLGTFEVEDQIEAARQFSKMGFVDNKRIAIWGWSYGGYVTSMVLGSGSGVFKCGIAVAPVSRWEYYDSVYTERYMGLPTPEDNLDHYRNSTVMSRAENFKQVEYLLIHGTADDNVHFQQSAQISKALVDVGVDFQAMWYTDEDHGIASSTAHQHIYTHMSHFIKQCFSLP
Sequence of human GLP-1 receptor (P43220 24-463): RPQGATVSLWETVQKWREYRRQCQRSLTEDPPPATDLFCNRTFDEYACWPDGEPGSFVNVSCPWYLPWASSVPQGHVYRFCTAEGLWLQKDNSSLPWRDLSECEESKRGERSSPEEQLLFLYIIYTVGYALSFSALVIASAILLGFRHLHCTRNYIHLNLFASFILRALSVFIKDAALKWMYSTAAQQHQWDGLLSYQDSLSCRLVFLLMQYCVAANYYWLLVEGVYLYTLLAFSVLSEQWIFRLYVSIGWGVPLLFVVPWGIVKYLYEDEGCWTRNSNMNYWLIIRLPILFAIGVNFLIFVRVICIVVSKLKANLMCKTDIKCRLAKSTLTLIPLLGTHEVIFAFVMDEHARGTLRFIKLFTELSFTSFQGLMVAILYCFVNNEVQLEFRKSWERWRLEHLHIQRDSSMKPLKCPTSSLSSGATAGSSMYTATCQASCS
T1 sequence (P08473 whole entry): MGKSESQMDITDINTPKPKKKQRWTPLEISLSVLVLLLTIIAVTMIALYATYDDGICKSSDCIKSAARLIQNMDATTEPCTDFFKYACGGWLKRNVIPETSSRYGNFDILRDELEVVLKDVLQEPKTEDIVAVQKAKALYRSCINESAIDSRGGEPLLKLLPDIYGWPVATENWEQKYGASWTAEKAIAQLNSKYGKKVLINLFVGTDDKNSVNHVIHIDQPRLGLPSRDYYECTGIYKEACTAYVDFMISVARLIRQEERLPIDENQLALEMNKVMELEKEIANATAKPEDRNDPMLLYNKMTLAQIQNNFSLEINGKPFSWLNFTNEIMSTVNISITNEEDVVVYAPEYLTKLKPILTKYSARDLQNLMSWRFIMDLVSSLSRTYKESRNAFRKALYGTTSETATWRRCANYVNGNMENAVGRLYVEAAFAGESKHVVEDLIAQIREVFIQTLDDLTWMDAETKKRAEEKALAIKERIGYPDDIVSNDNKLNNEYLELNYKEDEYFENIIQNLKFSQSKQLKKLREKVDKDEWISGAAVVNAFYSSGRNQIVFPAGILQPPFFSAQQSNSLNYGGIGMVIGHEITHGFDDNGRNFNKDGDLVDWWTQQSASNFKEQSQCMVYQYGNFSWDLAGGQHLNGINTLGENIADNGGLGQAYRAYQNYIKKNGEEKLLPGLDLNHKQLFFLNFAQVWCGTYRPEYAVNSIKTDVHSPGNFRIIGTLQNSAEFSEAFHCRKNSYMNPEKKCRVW

On to H-HAEGTFTSDVSSYLEGQAAKEFIAWLVKGRG-NH2, for which the cleaved bond entry in [1] is reported as “Asp15-Val16; also recorded: cleaves after Ser18; also recorded: cleaves after Tyr19; also recorded: cleaves after Glu27; also recorded: cleaves after Phe28; also recorded: cleaves after Trp31”; in data set [2], “cleaves after Ala8”.

For the molecule `CC[C@H](C)[C@H](NC(=O)[C@H](Cc1ccccc1)NC(=O)[C@H](CCC(=O)O)NC(=O)[C@H](CCCCN)NC(=O)[C@H](C)NC(=O)[C@H](C)NC(=O)[C@H](CCC(N)=O)NC(=O)CNC(=O)[C@H](CCC(=O)O)NC(=O)[C@H](CC(C)C)NC(=O)[C@H](Cc1ccc(O)cc1)NC(=O)[C@H](CO)NC(=O)[C@H](CO)NC(=O)[C@@H](NC(=O)[C@H](CC(=O)O)NC(=O)[C@H](CO)NC(=O)[C@@H](NC(=O)[C@H](Cc1ccccc1)NC(=O)[C@@H](NC(=O)CNC(=O)[C@H](CCC(=O)O)NC(=O)[C@H](C)NC(=O)[C@@H](N)Cc1c[nH]cn1)[C@@H](C)O)[C@@H](C)O)C(C)C)C(=O)N[C@@H](C)C(=O)N[C@@H](Cc1c[nH]c2ccccc12)C(=O)N[C@@H](CC(C)C)C(=O)N[C@H](C(=O)N[C@@H](CCCCN)C(=O)NCC(=O)N[C@@H](CCCNC(=N)N)C(=O)NCC(N)=O)C(C)C` [SEQ. ID. NO: 1], the “number of major cleavage sites, neprilysin” value in data set [3] (MALDI-TOF-MS) was “five”. For the same molecule, the half-life at 40 μM in data set [3] (neprilysin (isolated protease), pH 8, 40 μM peptide, TBS pH 8.0, room temperature, read-out: half-life (t1/2) with neprilysin (converted)) is 19.8 min; in [4] (DPP-4 (isolated protease)), 13.5 min; in [6] (chymotrypsin (isolated protease), 40 μM peptide, TBS pH 8.0, room temperature, read-out: t1/2 with chymotrypsin (converted)), 0.317 min. For the same molecule, the amount remaining at 1 min, 40 μM in [5] (60 seconds, read-out: peptide remaining after 60 seconds of digestion) is below 25%. In addition, the “number of major cleavage sites, chymotrypsin” value in [6] (MALDI-TOF-MS) was “three”. Further, the “Average Blood Glucose Level” value stood at 81.8 mg/dL in data set [7] (1 mg/kg i.p., time 0.0 min); 132.8 mg/dL in data set [7] (1 mg/kg i.p., time 30.0 min); 99.3 mg/dL in data set [7] (1 mg/kg i.p., time 60.0 min); 74.8 mg/dL in [7] (1 mg/kg i.p., time 90.0 min); 86.0 mg/dL in data set [7] (1 mg/kg i.p., time 120.0 min); 108.0 mg/dL in [7] (1 mg/kg i.p., time −60.0 min (peptide injection)). Moreover, the “Average Blood Glucose Level at 30 min (column head AUC)” value in [7] (1 mg/kg i.p., Table 7, 30 min after second glucose injection given five hours after peptide) is recorded as 250.5. In [7] (1 mg/kg, 30 min after the second glucose challenge), the “glucose-lowering effect in GTT repeated 5 hours after agonist administration (in words)” value is given as “no significant difference”.

For `CC[C@H](C)[C@H](NC(=O)[C@H](Cc1ccccc1)NC(=O)[C@H](CCC(=O)O)NC(=O)[C@H]1CCC[C@@H]1NC(=O)[C@H](C)NC(=O)[C@H](C)NC(=O)[C@H](CCC(N)=O)NC(=O)[C@H]1CCC[C@@H]1NC(=O)[C@H](CCC(=O)O)NC(=O)[C@H](CC(C)C)NC(=O)[C@H](Cc1ccc(O)cc1)NC(=O)[C@H]1CCC[C@@H]1NC(=O)[C@H](CO)NC(=O)C(C)(C)NC(=O)[C@H](CC(=O)O)NC(=O)[C@H](CO)NC(=O)[C@@H](NC(=O)[C@H](Cc1ccccc1)NC(=O)[C@@H](NC(=O)CNC(=O)[C@H](CCC(=O)O)NC(=O)C(C)(C)NC(=O)[C@@H](N)Cc1c[nH]cn1)[C@@H](C)O)[C@@H](C)O)C(=O)N[C@H]1CCC[C@@H]1C(=O)N[C@@H](Cc1c[nH]c2ccccc12)C(=O)N[C@@H](CC(C)C)C(=O)N[C@H](C(=O)N[C@H]1CNC[C@@H]1C(=O)NCC(=O)N[C@@H](CCCNC(=N)N)C(=O)NCC(N)=O)C(C)C` [SEQ. ID. NO: 7], in data set [3], the “t1/2 with neprilysin relative to native GLP-1 peptide” value is given as “more than 100 times”. Moreover, the “cleavage by DPP-4 over seven days (in words)” value in [4] (monitored seven days) was “no cleavage was detected”. Further, the share remaining at 25 min, 40 μM in data set [5] (1500 seconds, read-out: peptide remaining after 1500 seconds) is above 25%. For the same molecule, the half-life in data set [6] (40 μM peptide, TBS pH 8.0, room temperature, read-out: t1/2 with chymotrypsin (converted)) was 12.5 min. The “Max Response (% GLP-1 max)” value in data set [8] (HEK293 cells, cAMP production) was determined as 88 % GLP-1 max. Moreover, the “cAMP production, AVERAGES at M Concentrations −7” value in [8] (peptide concentration −7 (log M)) was 88.32. Also, the “cAMP production, AVERAGES at M Concentrations −8” value in [8] (peptide concentration −8 (log M)) was 63.0221. Also, the “cAMP production, AVERAGES at M Concentrations −9” value in [8] (peptide concentration −9 (log M)) was found to be 35. Moreover, the “cAMP production, AVERAGES at M Concentrations −10” value in [8] (peptide concentration −10 (log M)) worked out at 4.469. Besides, in data set [8] (peptide concentration −11 (log M)), the “cAMP production, AVERAGES at M Concentrations −11” value was determined as 3.504. In addition, in data set [8] (peptide concentration −12 (log M)), the “cAMP production, AVERAGES at M Concentrations −12” value was found to be 2.813. For the same molecule, in data set [8] (peptide concentration −13 (log M)), the “cAMP production, AVERAGES at M Concentrations −13” value is given as 3.831.

H-HAEGTFTSDASXYLEXQAAXEFIXWLVZGRG-NH2: in data set [9], the not cleaved result was “no cleavage was detected during seven (7) days”.
